# Data taken from patent US11028364B2, “Compositions and methods for modulating an immune response” (President and Fellows of Harvard College, priority 2015, dated 2021).
# Key:
# Format in all cases: cell-based, mice
# [1] = system: B cells cultured with TFH and TFR cells (suppressed cultures); assay: in vitro TFR suppression assay (B, TFH and TFR cells) with addition of cytokine; conditions: for amount of secreted antibody in culture supernatants: compared to activated cultures
# Procedure: To determine the mechanisms of how TFH and B cells are altered during direct TFR suppression, an in vitro suppression assay in which TFR cells are cultured with TFH and B cells was utilized. See e.g., Sage et al., J Clin Invest 124, 5191-5204 (2014); Sage et al., Immunity 41, 1026-1039 (2014); Sage et al., Methods Mol Biol 1291, 151-160 (2015). For these assays, FoxP3IRES-GFP mice were immunized with NP-OVA (emulsified in CFA) subcutaneously and isolated draining lymph nodes 7 days later. TFR (sorted as CD4+ICOS+CXCR5+CD19− FoxP3+) cells were added to co-cultures of B (sorted as CD19+) and TFH (sorted as CD4+ICOS+CXCR5+CD19−FoxP3) cells along with anti-CD3 and anti-IgM for 2 to 6 days (FIG. 1A, FIG. 36A, and FIG. 36B). After 6 days of co-culture of B and TFH cells, robust upregulation of the GC B cell marker GL7 was found as well as class switch recombination to IgG1, the predominant class switched isotype in this model (FIG. 1B). In addition, robust quantities of secreted IgG were found in the culture supernatant when B cells were cultured with TFH cells, but not when B cells were cultured alone. […] CD4^+CXCR5^−ICOS^−Foxp3^+ Treg cells were not able to suppress as efficiently as TFR cells did (FIG. 15). […] Therefore, this culture system is a robust model to study TFR suppression of TFH and B cells.
# It is possible that B cell function genes and multiple metabolic pathways cooperate to induce class switch recombination and antibody production in B cells. […] Therefore, to determine ways to overcome suppressed B cells therapeutically, it is possible that both B cell genes and metabolism would need to be energized to overcome suppression. […] When IL-21 was added to suppression assays, the attenuation in proliferation of B cells mediated by TFR cells was rescued (FIG. 11A).
# Since metabolism is essential to facilitate B cell effector functions and is regulated by TFR cells, the metabolic potential of B cells was assessed in suppressed cultures with the addition of IL-21. […] Similarly, Glut1 expression on TFH cells was rescued when IL-21 was added to suppressed cultures. […] Therefore, addition of IL-21 can rescue the glycolytic function of suppressed B cells. It is possible that IL-21 rescues antibody production primarily through enhancing metabolism. To determine if enhanced glycolysis was required for the IL-21 rescue of antibody production in suppressed cultures, glycolysis was blocked to determine if antibody responses could still be rescued in the absence of enhanced metabolism. […] Therefore, IL-21 renders B cells resistant to TFR mediated suppression primarily by enhancing metabolism.
# Whether IL-21 restored antibody production by acting directly on B cells was determined. Suppression assays were performed using B cells lacking the receptor for IL-21 (Il21r−/−). […] Since upregulation of GL7 is a robust indicator of B cell activation, its expression in suppressed cultures containing either Il21r+/+ B cells or Il21r−/− B cells and supplemented with IL-21 was compared.
# Since IL-21 could be affecting the TFH, B or TFR cell in the suppressed culture, whether the rescue of suppressed metabolism could be due to a combined effect of stimulating B cells and inhibiting TFR suppression (by acting directly on the TFR cell) was determined. […] Therefore, IL-21 rescue of TFR cell suppression of B and TFH cells is the result of modulation of B cells as well as inhibiting TFR cells.
# [2] = system: B cells cultured with TFH cells; assay: in vitro cultures of B and TFH cells (activated culture) with addition of pathway/metabolic inhibitors; conditions: inhibitor added to activated culture (B + TFH), anti-CD3/IgM
# Procedure: To determine the mechanisms of how TFH and B cells are altered during direct TFR suppression, an in vitro suppression assay in which TFR cells are cultured with TFH and B cells was utilized. See e.g., Sage et al., J Clin Invest 124, 5191-5204 (2014); Sage et al., Immunity 41, 1026-1039 (2014); Sage et al., Methods Mol Biol 1291, 151-160 (2015). For these assays, FoxP3IRES-GFP mice were immunized with NP-OVA (emulsified in CFA) subcutaneously and isolated draining lymph nodes 7 days later. TFR (sorted as CD4+ICOS+CXCR5+CD19− FoxP3+) cells were added to co-cultures of B (sorted as CD19+) and TFH (sorted as CD4+ICOS+CXCR5+CD19−FoxP3) cells along with anti-CD3 and anti-IgM for 2 to 6 days (FIG. 1A, FIG. 36A, and FIG. 36B).
# To determine if suppressing Myc in activated B cells could recapitulate TFR suppression, in vitro suppression assays were performed in which B cells were cultured with TFH cells, TFH and TFR cells, or TFH cells and the Myc inhibitor 10058-F4 (F4w).
# The mTOR pathway promotes protein synthesis during activation and has been linked to enhancing cellular metabolism. […] In vitro cultures of B and TFH cells were performed along with either the mTORc1 inhibitor rapamycin or TFR cells. […] Akt can act both upstream and downstream of mTOR to mediate activation signaling.
# To determine if inhibiting glycolysis could recapitulate TFR suppression, cultures of B and TFH cells were performed with the addition of 2-deoxyglucose (2DG), a glucose analog that blocks glycolysis.
# Therefore, whether inhibitors of purine metabolism could recapitulate TFR suppression in vitro was determined.
# [3] = system: B cells from suppressed cultures; assay: RNA-seq transcriptional analysis of B cells from suppressed cultures supplemented with IL-21
# Procedure: In order to determine how B and TFH cells effector states are altered during TFR mediated suppression assays were performed followed by RNA-seq transcriptome analysis. In these experiments B and TFH cells (from immunized FoxP3-IRES-GFP mice) were cultured with or without TFR cells (from immunized ActinCFP FoxP3-IRES-GFP mice) for 6 days in the presence of NP-OVA (the same antigen used to generate the B, TFH and TFR cells). After 4 days of culture, B (sorted as CD19+IA+CD4−) and TFH (sorted as CD4+IA−CD19−CFP−) cells were sorted from the “activated” culture (TFH and B cells alone) or from the “suppressed” culture (TFH, B and TFR cells) and RNAseq transcriptional analysis was performed (FIG. 2A, FIG. 37A and FIG. 37B).
# In order to determine which B cell function genes were rescued at the transcriptional level, RNA-seq transcriptional analysis was performed on B cells from activated cultures, from suppressed cultures, and suppressed cultures supplemented with IL-21. […] In the case of Aicda and Pou2af1, it is possible that this may be due to the epigenetic modification of these gene loci by TFR cells, however this was not tested directly.
# Therefore, IL-21 overcomes TFR suppression by stimulating B cells as well as metabolic pathways.
# [4] = cytokine added to suppressed culture
# [5] = cytokine added to suppressed cultures
# [6] = Il21r−/− B cells, suppressed cultures plus IL-21
# [7] = suppressed cultures with vs without IL-21
molecule,measurement,setting,value
IL-6: another Stat3 signaling cytokine,amount of secreted antibody in culture supernatants,[1]; [4],able to rescue
same,lactate production in culture supernatants,[1]; [5],substantially (although not completely) rescue
"CN(Cc1cnc2nc(N)nc(N)c2n1)c1ccc(C(=O)N[C@@H](CCC(=O)O)C(=O)O)cc1 [MTX, Methotrexate]",class switch recombination (IgG1+GL7+ B cells),[2],potently suppressed
same,secreted antibody / antibody production in culture supernatants,[2],robustly suppresses
"Cn1cnc([N+](=O)[O-])c1Sc1ncnc2nc[nH]c12 [AZA, azathioprine]",class switch recombination (IgG1+GL7+ B cells),[2],potently suppressed
same,secreted antibody / antibody production in culture supernatants,[2],robust suppression
CCc1ccc(/C=C2/SC(=S)NC2=O)cc1 [10058-F4],class switch recombination (IgG1+GL7+ B cells),[2],slight diminishment
same,secreted antibody / antibody production in culture supernatants,[2],robustly attenuated
"O=CC[C@@H](O)[C@H](O)[C@H](O)CO [2DG, 2-deoxyglucose]",secreted antibody / antibody production in culture supernatants,[2],robust suppression
IL-21: cytokine essential in the germinal center reaction,genes differentially expressed on suppression that are rescued (RNA-seq),[3]; 12 genes differential in both suppressed vs IL-21 rescue and suppressed vs activated,only Ighg1 and Ighg2c were ‘rescued’
same,"Aicda, Xbp1 and Pou2af1 transcripts (RNA-seq)",[3]; suppressed plus IL-21 cultures,did not show any evidence of rescue
same,metabolic pathways (ssGSEA on RNA-seq),[3]; suppressed plus IL-21 cultures,some rescue of many metabolic pathways
same,B cell function gene transcripts (RNA-seq),[3]; suppressed vs. suppressed plus IL-21 cultures,"only transcripts for the individual IgG isotypes (Ighg1, Ighg2c, Ighg2b, Igha) showed evidence of significant upregulation"
same,GL7 expression in B cells,"[1]; Il21r+/+ B cells, suppressed cultures plus IL-21",restored
same,GL7 expression in B cells,[1]; [6],not
same,antibody responses (IgG1+GL7+ B cells),[1]; [6],no evidence was found that antibody responses were restored
same,number of B cells,[1]; [6],did not abolish the increase
same,restoration of CSR,[1]; [6],prevent the restoration
same,restoration of Glut1 expression on B cells,[1]; [6],prevent the restoration
same,proliferation of B cells (Cell Trace Violet dilution),[1]; cytokine added to suppressed culture (B + TFH + TFR),rescued
same,class switch recombination (IgG1+GL7+ B cells),"[1]; cytokine added to suppressed culture, compared to activated culture",much higher
same,amount of secreted antibody in culture supernatants,[1]; [4],mostly rescued
same,Glut1 expression on B cells,[1]; [5],completely rescued
same,Glut1 expression on TFH cells,[1]; [5],rescued
same,glucose consumption in the culture,[1]; [5],almost completely rescued
same,lactate production in culture supernatants,[1]; [5],substantially (although not completely) rescue
same,rescue of antibody production when glycolysis is blocked,[1]; suppressed cultures plus IL-21 with addition of 2-deoxyglucose (2DG),not being able to rescue suppression
same,Glut1 expression in TFR cells,[1]; [7],higher
same,intracellular Ki67 staining in TFR cells,[1]; [7],much less
"IL-4: cytokine added to suppressed cultures (protein, UniProt P05112 25-153, looked up) Interleukin-4: HKCDITLQEIIKTLNSLTEQKTLCTELTVTDIFAASKNTTEKETFCRAATVLRQFYSHHEKDTRCLGATAQQFHRHKQLIRFLKRLDRNLWGLAGLNSCPVKEANQSTLENFLERLKTIMREKYSKCSS",amount of secreted antibody in culture supernatants,[1]; [4],did not occur
